Test results: patent US4005217A, “Treatment of helminth infections with substituted phenyl-thiourea derivatives” (May & Baker Limited, priority 1970, dated 1977)
In brackets after ≈: the same amount, converted by molar mass. Structures can show the parent of a compound that is named as a salt. Where two headings read alike, the source gives them in different places.

What was measured:
[1] = system: Nippostrongylus brasiliensis; experiment: Test 2: activity against roundworms in rats, treatment 24 hours after infection, worm counts 6 days after dosing; format: in vivo
Description: Test 2 -- Rats were infected with 100 Nippostrongylus brasiliensis larvae each, by the subcutaneous route. After 24 hours the rats were randomised and allotted to groups of 5 animals each, ready for treatment. Doses of the test compound were then administered to each group by the oral, subcutaneous and intraperitoneal routes respectively, one group of 10 animals being left untreated as a control. All the rats were killed for post-mortem worm counts 6 days after dosing. The activities, expressed in terms of the percentage reductions in mean worm load of the treated groups or damage to the worms compared with the untreated control group, are given below in Table I.

[2] = system: Nippostrongylus brasiliensis eggs; experiment: In vitro activity against roundworms (egg hatching and larvae); format: cell-based; conditions: 96 h, tested at 100, 10, 1 and 0.1 μg/ml, inhibited or delayed hatching of eggs, or killed, retarded growth or reduced activity of larvae during 4 days, read-out: M.I.C. (minimum inhibitory concentration)
Description: Compounds of formula I were tested at concentrations of 100 μg/ml, 10 μg/ml, 1 μg/ml and 0.1 μg/ml in small glass containers. If the compound was not soluble in water, a volatile organic medium, e.g. acetone, chloroform, ethanol or methanol was used. An amount of material appropriate for each final concentration was measured and placed in duplicate test containers and if an organic solvent was used it was allowed to evaporate completely. Nippostrongylus brasiliensis eggs were recovered by saturated saline centrifugal flotation from the faeces of rats heavily infected with third stage larvae six days previously. They were washed several times in water and suspended in water in a suitable concentration. From 25-50 eggs were placed in each container and the final volume was made up by the addition of a very dilute aqueous suspension of mouse faeces which served as the growth medium. The minimum inhibitory concentrations of each compound (M.I.C.), shown in the following Table V was the minimum concentration in μg/ml total liquid volume at which it inhibited or delayed hatching of eggs, or at which it killed, retarded growth or reduced activity of larvae during the 4 days after beginning the test.

[3] = system: influenza virus type A2 /Hong Kong/5/68; format: in vivo; conditions: mice, 250 mg/kg oral 3 hours before and 1 hour after infection; pooled lungs 24 hours after infection; greatest dilution producing agglutination
[4] = system: Nippostrongylus brasiliensis; experiment: Test 1: activity against roundworms in rats, treatment 6 days after infection (patent infection), worm counts 48 hours after treatment; format: in vivo
Description: Test 1 - Rats were infected with 100 Nippostrongylus brasiliensis larvae each, by the subcutaneous route. After 6 days, when the infection was patent, the rats were randomised and alloted to groups of 10 animals each, ready for treatment. One group was used for each dose level of the test compound and, in each experiment, one group was left untreated as a control. All the rats were killed for post-mortem worm counts 48 hours after treatment. The activity, expressed in terms of the percentage reduction in mean worm load of the treated group compared with the untreated group, is shown in Table I.

[5] = Nippostrongylus brasiliensis, 144 h, rats, Test 2, 1000 mg/kg oral, read-out: Percentage reduction in N.brasiliensis load
[6] = Nippostrongylus brasiliensis, po, 48 h, Test 1, 1000 mg/kg oral, read-out: Percentage reduction in N.brasiliensis load
[7] = Nippostrongylus brasiliensis, ip, 144 h, rats, Test 2, 250 mg/kg intraperitoneal, read-out: Percentage reduction in N.brasiliensis load
[8] = Nippostrongylus brasiliensis, sc, 144 h, rats, Test 2, 250 mg/kg subcutaneous, read-out: Percentage reduction in N.brasiliensis load

## Nc1ccccc1NC(=S)NC(=O)OCCCl [1-(2-chloroethoxycarbonyl)-3-(2-aminophenyl)thiourea]
[1]; [5]
  inhibition in vivo at 1000 mg/kg: 96%
[1]; rats, Test 2, 1000 mg/kg oral
  worm damage: worm damage
[2]
  MIC: 100 µg/mL (≈ 365 µM)
[3]
  Haemagglutinin titre-treated animals: 1/32

## CCCCN(C)CC(=O)Nc1ccccc1NC(=S)NC(=O)OCC [1-ethoxycarbonyl-3-(2-N-n-butyl-N-methylaminoacetamidophenyl)thiourea hydrochloride]
[4]; [6]
  inhibition in vivo at 1000 mg/kg: 86%
[4]; Test 1, 1000 mg/kg oral
  worm damage: worm damage
[1]; [5]
  inhibition in vivo at 1000 mg/kg: 99%
[1]; rats, Test 2, 1000 mg/kg oral
  worm damage: worm damage
[2]
  MIC: 1 µg/mL
[3]
  Haemagglutinin titre-treated animals: 1/4

## CCOC(=O)NC(=S)Nc1cc(NC(=O)OC(C)C)ccc1NC(C)=O [1-ethoxycarbonyl-3-(2-acetamido-5-isopropoxycarbonylaminophenyl)thiourea]
[3]
  Haemagglutinin titre-treated animals: 1/256

## CCOC(=O)NC(=S)Nc1ccc(F)cc1N [1-ethoxycarbonyl-3-(2-amino-4-fluorophenyl)thiourea]
[1]; [5]
  inhibition in vivo at 1000 mg/kg: 50%
[1]; rats, Test 2, 1000 mg/kg oral
  worm damage: worm damage
[2]
  MIC: 1 µg/mL (≈ 3.89 µM)
[3]
  Haemagglutinin titre-treated animals: 1/32

## CCOC(=O)NC(=S)Nc1ccccc1NC(=O)CN(CC)CC [1-ethoxycarbonyl-3-(2-diethylaminoacetamidophenyl)thiourea hydrochloride]
[4]; [6]
  inhibition in vivo at 1000 mg/kg: 44%
[1]; [5]
  inhibition in vivo at 1000 mg/kg: 100%
[1]; [7]
  inhibition in vivo at 250 mg/kg: 99%
[1]; [8]
  inhibition in vivo at 250 mg/kg: 95%
[2]
  MIC: 0.1 µg/mL

## CCOC(=O)NC(=S)Nc1ccccc1NC(=O)CN(C)C [1-ethoxycarbonyl-3-(2-dimethylaminoacetamidophenyl)thiourea hydrochloride]
[4]; [6]
  inhibition in vivo at 1000 mg/kg: 85%
[1]; [5]
  inhibition in vivo at 1000 mg/kg: 98%
[1]; Nippostrongylus brasiliensis, ip, 144 h, rats, Test 2, 125 mg/kg intraperitoneal, read-out: Percentage reduction in N.brasiliensis load
  inhibition in vivo at 125 mg/kg: 85%
[1]; Nippostrongylus brasiliensis, sc, 144 h, rats, Test 2, 100 mg/kg subcutaneous, read-out: Percentage reduction in N.brasiliensis load
  inhibition in vivo at 100 mg/kg: 76%
[2]
  MIC: 0.1 µg/mL

## CCOC(=O)NC(=S)Nc1ccccc1NC(=O)CN1CCCCC1 [1-ethoxycarbonyl-3-(2-piperidinoacetamidophenyl)thiourea hydrochloride]
[4]; [6]
  inhibition in vivo at 1000 mg/kg: 85%
[1]; [5]
  inhibition in vivo at 1000 mg/kg: 98%
[2]
  MIC: 1 µg/mL

## CCCCc1ccc(NC(=O)CN(C)C)c(NC(=S)NC(=O)OCC)c1 [1-ethoxycarbonyl-3-(5-n-butyl-2-dimethylaminoacetamidophenyl)thiourea hydrochloride]
[4]; [6]
  inhibition in vivo at 1000 mg/kg: 30%
[1]; [5]
  inhibition in vivo at 1000 mg/kg: 88%
[2]
  MIC: 0.1 µg/mL

## CCOC(=O)NC(=S)Nc1ccccc1NC(=O)CN1CCN(C)CC1.Cl [1-ethoxycarbonyl-3-[2-(4-methylpiperazin-1-ylacetamido)phenyl]thiourea hydrochloride]
[4]; Test 1, 1000 mg/kg oral
  worm damage: worm damage
[1]; [5]
  inhibition in vivo at 1000 mg/kg: 100%
[1]; [7]
  inhibition in vivo at 250 mg/kg: 98%
[1]; [8]
  inhibition in vivo at 250 mg/kg: 93%
[2]
  MIC: 0.1 µg/mL

## CCOC(=O)NC(=S)Nc1ccccc1NC(=O)CN(C)Cc1ccccc1 [1-ethoxycarbonyl-3-[2-(N-benzyl-N-methylaminoacetamido)-phenyl]thiourea hydrochloride]
[4]; [6]
  inhibition in vivo at 1000 mg/kg: 50%
[4]; Test 1, 1000 mg/kg oral
  worm damage: worm damage
[1]; [5]
  inhibition in vivo at 1000 mg/kg: 99%
[1]; rats, Test 2, 1000 mg/kg oral
  worm damage: worm damage
[2]
  MIC: 0.1 µg/mL

## COC(=O)NC(=S)Nc1ccc(NC(=O)OC(C)C)cc1NC(C)=O [1-methoxycarbonyl-3-(2-acetamido-4-isopropoxycarbonylaminophenyl)thiourea]
[3]
  Haemagglutinin titre-treated animals: 1/256

## COC(=O)NC(=S)Nc1cc(NC(=O)OC(C)C)ccc1NC(C)=O [1-methoxycarbonyl-3-(2-acetamido-5-isopropoxycarbonylaminophenyl)thiourea]
[3]
  Haemagglutinin titre-treated animals: 1/128

## COC(=O)NC(=S)Nc1ccc(NC(=O)OC)cc1N [1-methoxycarbonyl-3-(2-amino-4-methoxycarbonylaminophenyl)thiourea]
[4]; [6]
  inhibition in vivo at 1000 mg/kg: 100%
[1]; Nippostrongylus brasiliensis, 144 h, rats, Test 2, 250 mg/kg oral, read-out: Percentage reduction in N.brasiliensis load
  inhibition in vivo at 250 mg/kg: 99%
[1]; Nippostrongylus brasiliensis, 144 h, rats, Test 2, 500 mg/kg oral, read-out: Percentage reduction in N.brasiliensis load
  inhibition in vivo at 500 mg/kg: 99%
[1]; [5]
  inhibition in vivo at 1000 mg/kg: 100%
[2]
  MIC: 100 µg/mL (≈ 335 µM)
[3]
  Haemagglutinin titre-treated animals: 1/512

## COC(=O)NC(=S)Nc1ccccc1N.O=[N+]([O-])O [1-methoxycarbonyl-3-(2-aminophenyl)thiourea nitrate]
[4]; Test 1, 1000 mg/kg oral
  Percentage reduction in N.brasiliensis load: 99%
[1]; Nippostrongylus brasiliensis, po, 144 h, read-out: Percentage reduction in N.brasiliensis load, rats, Test 2, 1000 mg/kg oral
  inhibition in vivo at 1000 mg/kg: 99%

## COC(=O)NC(=S)Nc1ccccc1N.Cc1ccc(S(=O)(=O)O)cc1 [1-methoxycarbonyl-3-(2-aminophenyl)thiourea toluene-p-sulphonate]
[4]; Test 1, 1000 mg/kg oral
  Percentage reduction in N.brasiliensis load: 98%
[1]; rats, Test 2, 1000 mg/kg oral
  Percentage reduction in N.brasiliensis load: 99%

## CCCCc1ccc(NC(=O)C2CC2)c(NC(=S)NC(=O)OC)c1 [1-methoxycarbonyl-3-(2-cyclopropylcarbonamido-5-n-butylphenyl)thiourea]
[2]
  MIC: 0.1 µg/mL (≈ 0.286 µM)
[3]
  Haemagglutinin titre-treated animals: 1/128

## COC(=O)NC(=S)Nc1ccccc1NC(=O)C[N+](C)(C)C [1-methoxycarbonyl-3-(2-trimethylammoniumacetamidophenyl)thiourea iodide]
[1]; rats, Test 2, 1000 mg/kg oral
  worm damage: worm damage
[2]
  MIC: 1 µg/mL
[3]
  Haemagglutinin titre-treated animals: 1/256

## COC(=O)NC(=S)Nc1cc(NC(=O)OC(C)C)ccc1NC=O [1-methoxycarbonyl-3-(2formamido-5-isopropoxycarbonylaminophenyl)thiourea]
[3]
  Haemagglutinin titre-treated animals: 1/256

## CCCCc1ccc(NC(=S)NC(=O)OC)c(NC(=O)OCC)c1 [1-methoxycarbonyl-3-(4-n-butyl-2-ethoxycarbonylaminophenyl)thiourea]
[4]; Nippostrongylus brasiliensis, po, 48 h, Test 1, 500 mg/kg oral, read-out: Percentage reduction in N.brasiliensis load
  inhibition in vivo at 500 mg/kg: 40%
[4]; Test 1, 500 mg/kg oral
  worm damage: worm damage
[2]
  MIC: 0.1 µg/mL (≈ 0.283 µM)

## CCCCc1ccc(NC=O)c(NC(=S)NC(=O)OC)c1 [1-methoxycarbonyl-3-(5n-butyl-2-formamidophenyl)thiourea]
[1]; [5]
  inhibition in vivo at 1000 mg/kg: 96%
[1]; rats, Test 2, 1000 mg/kg oral
  worm damage: worm damage
[2]
  MIC: 0.1 µg/mL (≈ 0.323 µM)
[3]
  Haemagglutinin titre-treated animals: 1/32

## COC(=O)NC(=S)Nc1ccccc1NC(=O)CCN(C)C.Cl [1-methoxycarbonyl-3-[2-(3-dimethylaminopropionamido)phenyl]thiourea hydrochloride]
[4]; [6]
  inhibition in vivo at 1000 mg/kg: 20%
[4]; Test 1, 1000 mg/kg oral
  worm damage: worm damage
[1]; [5]
  inhibition in vivo at 1000 mg/kg: 98%
[1]; rats, Test 2, 1000 mg/kg oral
  worm damage: worm damage
[2]
  MIC: 1 µg/mL

## C#CCOC(=O)NC(=S)Nc1ccccc1N [1-propargyloxycarbonyl-3-(2-aminophenyl)thiourea]
[4]; [6]
  inhibition in vivo at 1000 mg/kg: 76%
[4]; Test 1, 1000 mg/kg oral
  worm damage: worm damage
[1]; [5]
  inhibition in vivo at 1000 mg/kg: 100%
[2]
  MIC: 1 µg/mL (≈ 4.01 µM)
